Results taken from the supplement of paper PMC11061612.

Assays:
[1] = tested on: SUIT-2 (Pancreatic Carcinoma); test: Bliss excess, mean over the matrix (fraction); higher = more synergy
Method in brief: (§1)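 Cell lines in DMEM/F12 or RPMI with 10% FBS were plated in 1536-well plates, held 24 hours at 37°C, 5% CO2, then given two-drug dose matrices for 72 hours (DMSO typically 0.2%). Viability was read by CellTiter-Glo 2.0 luminescence and scaled as inhibition from 0 (vehicle wells) to 1 (blank wells). Combination Emax is the second-highest inhibition in the matrix; Bliss excess is observed combination effect minus expected EA + EB − EA·EB, EA and EB being single-agent effects.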

NCI-H2369 (Mesothelioma) [2] = test: as above
Method in brief: as §1

[3] = tested on: LS-513 (Colorectal Carcinoma); test: as above
Method in brief: as §1

[4] = tested on: NALM-6 (B-Lymphoblastic Leukemia); test: as above
Method in brief: as §1

[5] = tested on: MDA-MB-157 (Breast Carcinoma); test: as above
Method in brief: as §1

[6] = tested on: TE-5 (Esophageal Squamous Cell Carcinoma); test: as above
Method in brief: as §1

[7] = tested on: DMS-273 (Small Cell Lung Carcinoma); test: as above
Method in brief: as §1

[8] = tested on: SW1783 (Low Grade Glioma); test: as above
Method in brief: as §1

[9] = tested on: NCI-H1694 (Small Cell Lung Carcinoma); test: as above
Method in brief: as §1

[10] = tested on: JiyoyeP-2003 (Burkitt's Lymphoma); test: as above
Method in brief: as §1

[11] = tested on: IHH-4 (Thyroid Gland Carcinoma); test: as above
Method in brief: as §1

[12] = tested on: U-266 (Plasma Cell Myeloma); test: combination Emax (second highest fraction inhibited in the dose matrix, 72 h); higher = more inhibition; extreme values may be limits of the assay
Method in brief: as §1

[13] = tested on: SUIT-2 (Pancreatic Carcinoma); test: as above
Method in brief: as §1

NCI-H2369 (Mesothelioma) [14] = test: as above
Method in brief: as §1

[15] = tested on: SW1088 (Low Grade Glioma); test: as above
Method in brief: as §1

NCI-H2595 (Mesothelioma) = test: as above
Method in brief: as §1

[16] = tested on: LS-513 (Colorectal Carcinoma); test: as above
Method in brief: as §1

[17] = tested on: NALM-6 (B-Lymphoblastic Leukemia); test: as above
Method in brief: as §1

[18] = tested on: MFH-ino (Other Solid Carcinomas); test: as above
Method in brief: as §1

[19] = tested on: OCI-AML2 (Acute Myeloid Leukemia); test: as above
Method in brief: as §1
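For Bliss excess, mean over the matrix in this document: after 72 h of two-drug dosing.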

Structure (SMILES)	Bliss excess [1]	Bliss excess (NCI-H2369 (Mesothelioma) [2])	Bliss excess [3]	Bliss excess [4]	Bliss excess [5]	Bliss excess [6]	Bliss excess [7]	Bliss excess [8]	Bliss excess [9]	Bliss excess [10]	Bliss excess [11]	combination Emax [12]	combination Emax [13]	combination Emax (NCI-H2369 (Mesothelioma) [14])	combination Emax [15]	combination Emax (NCI-H2595 (Mesothelioma))	combination Emax [16]	combination Emax [17]	combination Emax [18]	combination Emax [19]
CC1(C)CCC(CN2CCN(c3ccc(C(=O)NS(=O)(=O)c4ccc(NCC5CCOCC5)c([N+](=O)[O-])c4)c(Oc4cnc5[nH]ccc5c4)c3)CC2)=C(c2ccc(Cl)cc2)C1 [Venetoclax] + C=CCn1c(=O)c2cnc(Nc3ccc(N4CCN(C)CC4)cc3)nc2n1-c1cccc(C(C)(C)O)n1 [AZD1775] (first compound max 1 µM, partner max 1 µM)	-0.0295	-0.0134	-0.0581	0.119	0.0679	-0.0412	-0.0711	-0.0007	0.0226	-0.0263	-0.0654	0.85	0.596	0.27	0.648	0.189	0.697	1	0.184	1
CC1(C)CCC(CN2CCN(c3ccc(C(=O)NS(=O)(=O)c4ccc(NCC5CCOCC5)c([N+](=O)[O-])c4)c(Oc4cnc5[nH]ccc5c4)c3)CC2)=C(c2ccc(Cl)cc2)C1 [Venetoclax] + CCN(CCO)CCCOc1ccc2c(Nc3cc(CC(=O)Nc4cccc(F)c4)[nH]n3)ncnc2c1 [AZD2811] (first compound max 1 µM, 7x7, partner max 1 µM)	-0.0135	-0.015	-0.0407	0.0968	0.0119	-0.0318	0.0016	-0.0192	0.0477	0.0467	-0.0288	0.614	0.187	0.173	0.474	0.611	0.399	0.97	0.191	1
CC1(C)CCC(CN2CCN(c3ccc(C(=O)NS(=O)(=O)c4ccc(NCC5CCOCC5)c([N+](=O)[O-])c4)c(Oc4cnc5[nH]ccc5c4)c3)CC2)=C(c2ccc(Cl)cc2)C1 [Venetoclax] + CN(C)CCCOc1ccc(-c2ccc3ncc4c(c3c2)n(C2CCOCC2)c(=O)n4C)cn1 [AZD0156] (first compound max 1 µM, 7x7, partner max 1 µM)	0.0031	-0.0298	-0.0273	0.0426	-0.0087	-0.0248	0.0156	-0.0532	-0.0001	-0.0128	-0.0153	0.56	0.207	0.194	0.238	0.177	0.316	0.89	0.171	0.993
CC1(C)CCC(CN2CCN(c3ccc(C(=O)NS(=O)(=O)c4ccc(NCC5CCOCC5)c([N+](=O)[O-])c4)c(Oc4cnc5[nH]ccc5c4)c3)CC2)=C(c2ccc(Cl)cc2)C1 [Venetoclax] + COc1cc(Nc2ncc3c(n2)-c2ccc(Cl)cc2C(c2c(F)cccc2OC)=NC3)ccc1C(=O)O [Alisertib] (first compound max 1 µM, 7x7, partner max 10 µM)	-0.0515	-0.0739	-0.0655	0.104	0.014	-0.105	0.0086	-0.0178	0.256	-0.0161	-0.0216	0.751	0.106	0.327	0.679	0.211	0.55	0.977	0.318	1
CC1(C)CCC(CN2CCN(c3ccc(C(=O)NS(=O)(=O)c4ccc(NCC5CCOCC5)c([N+](=O)[O-])c4)c(Oc4cnc5[nH]ccc5c4)c3)CC2)=C(c2ccc(Cl)cc2)C1 [Venetoclax] + C[C@@H]1COCCN1C2=NC(=NC(=C2)C3(CC3)[S@](=N)(=O)C)C4=C5C=CNC5=NC=C4 [AZD6738] (first compound max 1 µM, 7x7, partner max 10 µM)	-0.0491	-0.0247	-0.0591	0.0565	-0.0195	-0.0623	-0.0779	-0.0555	0.0443	0.0139	-0.0482	0.614	0.471	0.233	0.684	0.249	0.677	0.994	0.5	1
CC1(C)CCC(CN2CCN(c3ccc(C(=O)NS(=O)(=O)c4ccc(NCC5CCOCC5)c([N+](=O)[O-])c4)c(Oc4cnc5[nH]ccc5c4)c3)CC2)=C(c2ccc(Cl)cc2)C1 [Venetoclax] + C[C@@H](Nc1cc(F)cc(F)c1)c1cc(C(=O)N(C)C)cc2c(=O)cc(N3CCOCC3)oc12 [AZD8186] (first compound max 1 µM, 7x7, partner max 3 µM)	-0.0481	-0.0299	-0.0551	0.0348	0.0095	-0.0327	0.0274	-0.0258	0.0808	0.0246	0.0138	0.471	0.0137	0.107	0.493	0.163	0.491	0.866	0.0981	1
CC1(C)CCC(CN2CCN(c3ccc(C(=O)NS(=O)(=O)c4ccc(NCC5CCOCC5)c([N+](=O)[O-])c4)c(Oc4cnc5[nH]ccc5c4)c3)CC2)=C(c2ccc(Cl)cc2)C1 [Venetoclax] + Cc1cc2ncnn2cc1Nc1ncc2c(n1)n(C1CCOCC1)c(=O)n2C [AZD7648] (first compound max 1 µM, 7x7, partner max 10 µM)	-0.0271	-0.0273	-0.0294	-0.0184	-0.0154	-0.0382	-0.0147	-0.0395	-0.0247	-0.0604	-0.027	0.511	0.198	0.164	0.341	0.228	0.192	0.789	0.318	1
CC1(C)CCC(CN2CCN(c3ccc(C(=O)NS(=O)(=O)c4ccc(NCC5CCOCC5)c([N+](=O)[O-])c4)c(Oc4cnc5[nH]ccc5c4)c3)CC2)=C(c2ccc(Cl)cc2)C1 [Venetoclax] + Cn1cnc2c(F)c(Nc3ccc(Br)cc3Cl)c(C(=O)NOCCO)cc21 [Selumetinib] (first compound max 1 µM, 7x7, partner max 3 µM)	-0.0942	-0.0308	-0.0159	0.168	0.0208	-0.0575	-0.0184	-0.0595	-0.0313	0.0014	-0.0176	0.722	0.26	0.119	0.146	0.129	0.717	0.908	0.201	1
